Assay results reported in patent US9068949B2, “System and method for multiplex spectroscopic imaging” (Purdue Research Foundation, priority 2013, dated 2015).

System: intact mouse ear
Experiment: DMSO penetration into intact mouse ear monitored by multiplex SRS imaging with MCR analysis
Assay type: in vivo
Settings: DMSO applied to intact mouse ear
Description: In order to reduce ambiguity associated with MCR decomposition, a data augmentation matrix composed of repeating reference spectra, if needed, can be added to the spectral dataset D. The enhanced weight on pure reference spectra permits the MCR algorithm to selectively recover concentration profiles for corresponding Raman bands. An experiment was performed to test this. For tissue penetration data, pure DMSO spectrum and lipid spectrum were provided as initial estimations (reference spectra) for MCR analysis. A data augmentation matrix including reference spectra of DMSO and lipid was added to the spectral dataset in order to reduce ambiguity. For analysis of aqueous solutions of DMSO, a data augmentation matrix composed of reference spectra of DMSO was added to the spectral dataset in order to reduce MCR's ambiguity. A non-negativity constraint was used during the iterations.
FIGS. 10A, 10B, 11A, 11B, and 12 show experimental data of SRS imaging. Various aspects of parallel detection herein advantageously provide a speed of acquiring a spectrum at 30 μs time scale, or over 30,000 spectra per second. For imaging, this scheme avoids spectral profile distortion induced by sample movement, thus enabling observation of target molecules in a highly dynamic system. […] Every three minutes, one spectroscopic SRL image was acquired at the speed of 3 s per frame of 200×200 pixels. Importantly, although the C—H Raman spectra of DMSO and lipid are completely overlapped, spectroscopic SRS imaging, followed by employing MCR analysis as described above, permitted determining concentration maps of lipids and DMSO over time.
The scale bar in the 5-minute image in FIG. 10A is 20 μm. The arrow near the center of the 32-minute image in FIG. 10A indicates the location at which concentrations were measured for FIG. 12, discussed below.
The temporal dynamics of DMSO (circles) and lipid (squares) concentrations are shown. The curve represents fitting by a diffusion model. […]

C[S+](C)[O-] [DMSO, dimethyl sulfoxide]
structure of the fat cells after DMSO application (imaged up to 32 minutes): remained intact | distribution of DMSO in the adipose tissue (lipid-abundant layer ~50 μm beneath the skin surface, after 30 min): inter-cell distribution of DMSO was observed | DMSO penetration into the adipose tissue (lipid-abundant layer ~50 μm beneath the skin surface, in the first 5 min): Very small amounts
